Broadly, the IC50 is the concentration that gives 50% inhibition.

The test system of one data set is SK-N-AS. In words: alamarBlue cytotoxicity assay, SK-N-AS. It is filed as cell-based. The note with it: Homo sapiens. Here is the method:
(§1) Cytotoxicity Assays. Cell culture cytotoxicity assays were performed using the. alamarBlue method, as described by Ahmed et al., J. Immun. Methods 1994, 170, 211-224, which is incorporated herein by reference. Briefly, aliquots of 100 μL of cell suspension (1.0-2.5×10^3 cells) was placed in 96-well microtiter plates in an atmosphere of 5% CO2 at 37° C. After 24 hours, 100 μL of culture medium and 2 μL of compound in vehicle (culture media with 40% pyridine) or vehicle alone were added, and the plates incubated an additional 72 hours. The final pyridine concentration in all cases was 0.4%; at this pyridine concentration there was no affect on the growth of cells compared to cells in culture media without added pyridine. […] After the culture media had been removed from each well, 200 μL of fresh media and 20 μL of 90% alamarBlue reagent were added, followed by an additional 6 h incubation. The fluorescent intensity was measured using a Spectrafluor Plus plate reader with excitation at 530 nm and emission at 590 nm. Results are reported as IC50 values, the average concentration required to produce a decrease of fluorescent intensity of 50% relative to vehicle-treated controls in two separate determinations.
In general terms: Resazurin is reduced to fluorescent resorufin, in cell work by metabolically active cells.

The nature of data set [1]: alamarBlue cytotoxicity, range over four cell lines. The note with it: human. It is filed as cell-based. Here is the method:
as §1, with “hours.” for “hours. The final pyridine concentration in all cases was 0.4%; at this pyridine concentration there was no affect on the growth of cells compared to cells in culture media without added pyridine.”, “nm.” for “nm. Results are reported as IC50 values, the average concentration required to produce a decrease of fluorescent intensity of 50% relative to vehicle-treated controls in two separate determinations.”

The subject of another data set is SK-N-D7. As to the kind of experiment: alamarBlue cytotoxicity assay, SK-N-D7. Format: cell-based. Here is the method:
as §1

Another data set concerns HL60 cells. As to the kind of experiment: alamarBlue cytotoxicity assay, HL60. Format: cell-based, human. The note with it: HL60, alamarBlue, 72 h. Here is the method: as §1
A further data set deals with CHP-212. In words: alamarBlue cytotoxicity assay, CHP-212. It is filed as cell-based. The note with it: Homo sapiens; CHP-212, alamarBlue. On the procedure:
as §1

The subject of data set [2] is IMR-32 neuroblastoma cell line. As to the kind of experiment: alamarBlue cytotoxicity assay, IMR-32. The note with it: Homo sapiens. It is filed as cell-based. Here is the method: as §1
A short description of data set [3]: Metal ion binding by continuous variation, Zn2+. The note with it: Zn^2+, methanol, 1:1 complex. On the procedure: (§2) Previous work indicated the metal ion binding mechanism of UK-1, so the method of continuous variation was used to determine the ability of selected UK-1analogues to bind a variety of metal ions. Methanolic solutions of UK-1 or UK-1 analogues and metal ion salts [Ca(NO3)2, Mg(NO3)2, Zn(NO3)2, or Fe(NO3)3] at various molar ratios, and 20 μM combined total concentration, were prepared and the absorbance at 418 nm was determined. […] Compound 2.1 does bind with Ca^2+ and Zn^2+ better than UK-1.
(§3) Continuous variation plots. A 100 μM solution of UK-1 or analogue and 100 AM solutions of Ca(NO3)2, Mg(NO3)2, Zn(NO3)2, or Fe(NO3)3 were prepared in methanol. From these stock solutions, 15 samples (1 mL) of varying mole fraction of the metal ion were prepared at a constant, combined concentration of 20 μM for the ligand and the metal ion. The change in absorbance was monitored from 500 to 200 nm for each sample using as a reference a 1 mL solution containing the same concentration of ligand as the sample being measured but without the metal ion. The maximum absorbance change was typically around 418 nm but varied somewhat for each metal ion. The absorbance at 418 nm was plotted as a function of the mole fraction of the metal ion and the maximum absorbance change was determined. The absorbance of a sample containing the metal ion concentration corresponding to this maximum change and a 15 fold excess of metal ion at this ligand concentration, subtracted from a reference containing the same concentration of ligand but no metal ion was used to normalize the curve and obtain the conditional formation constant as described in the paper to Likussar, W.; Boltz, D. F. Anal. Chem. 1971, 43, 1265-1272, which is incorporated herein by reference.

A further data set has as its system A549. As to the kind of experiment: alamarBlue cytotoxicity assay, A549. It is filed as cell-based. The note with it: Homo sapiens. Here is the method: as §1
Data set [4] in a line: Metal ion binding by continuous variation, Ca2+. The note with it: Ca^2+, methanol, 1:1 complex. On the procedure:
as §2, §3

Data set [5] has as its system double-stranded DNA oligonucleotide. In words: DNA binding by ESI-MS. The note with it: ligand-DNA complex ions, presence or absence of added NiCl2. On the set-up: key: MetalDepend.: all ligand-DNA complex ions also contained a metal ion.; None: no ligand-DNA complex ions observed.; MetalIndepend.: ligand-DNA and ligand-DNA-metal ion complex ions observed.
A further data set concerns MDA-231. In words: alamarBlue cytotoxicity assay, MDA-231. Format: cell-based. The note with it: Homo sapiens, MDA-MB-231; MDA-231, alamarBlue. On the procedure: as §1
The next data set has as its system Pseudomonas aeruginosa. In words: Antimicrobial bioassay, P. aeruginosa. Format: cell-based. The note with it: concentrations up to 50 μg/mL.
Another data set concerns Supercoiled ΦX174 DNA. As to the kind of experiment: Cleavage of supercoiled DNA, agarose gel electrophoresis. It is filed as biochemical. The note with it: 37° C. Here is the method:
Supercoiled Φ[…] DNA (50 μM) was incubated for 24 hrs in pH 8 Tris buffer (10 mM) at 37° C. with UK-1 (15-25 μM), H2O2 (5 μM-5 mM), or NiCl2 (15-25 μM), or a combination of these agents. Agarose gel electrophoresis was carried out to resolve the DNA products. […] There was an increase in the proportion of nicked, relaxed DNA product in the presence of an oxidant (e.g., H2O2), but no linear DNA that would indicate double-stranded DNA cleavage. […] FIG. 5 depicts cleavage of supercoiled DNA by UK-1 in the presence of oxidizing agents and metal ions. Supercoiled Φ[…] DNA (50 μM bp) was incubated with UK-1 (23 μM), NiCl2 (23 μM), H2O2 (5 mM), or combinations of these agents at 37° C. for 24 h and the DNA products subjected to agarose gel electrophoresis with ethidium bromide staining. Lanes: C, untreated supercoiled DNA; 1, DNA+UK-1; 2, DNA+NiCl2; 3, DNA+H2O2; 4, DNA+UK-1+NiCl2; 5, DNA+UK-1+H2O2; 6, DNA+UK-1+NiCl2+H2O2; 7, DNA+NiCl2+H2O2.

Consider `COC(=O)c1cccc2oc(-c3cccc4oc(-c5ccccc5O)nc34)nc12` [UK-1], for which the IC50 in the data set on SK-N-AS came out at 24000 nM; in the data set on SK-N-D7, 170 nM; in the data set with HL60 cells, 400 nM; in the data set with HL60 cells (Homo sapiens, HL-60, 72 h), 320 nM; with CHP-212 it was 12000 nM; in [2] (IMR-32, IMR-32, alamarBlue), 60 nM. Also, the IC50 in [2] (IMR-32, IMR-32, bound stated in text) is under 100 nM; in the data set with A549, 1900 nM; in the data set with MDA-231, 500 nM. Besides, the half-inhibitory concentration (IC50) at 72 h in data set [1] is 320 to 65000 nM. In addition, the “Association constant for metal ion binding” value in data set [3] came to 2e+06 M⁻¹; in data set [4] it was 40000 M⁻¹. In addition, the “DNA-Binding ESI-MS” value in data set [5] is “MetalDepend.^d”. Besides, the antibacterial effect result in the data set with Pseudomonas aeruginosa is on record as “no indication of any antibacterial effect”. Besides, the DNA cleavage entry with Supercoiled ΦX174 DNA (UK-1 and an oxidant (H2O2), 24 hrs) was “significantly more DNA cleavage”; with Supercoiled ΦX174 DNA (UK-1 only, 24 hrs, pH 8 Tris buffer) it was “no evidence of DNA cleavage”; with Supercoiled ΦX174 DNA (combination of UK-1, H2O2, and NiCl2, 24 hrs), “particularly active in inducing DNA cleavage”.

The values above are taken from patent US7294643B2, “UK-1 analogues: methods of preparation and use” (Board of Regents, The University of Texas System, priority 2002, dated 2007).
